Results on 10 compounds are retold here after US11339161B2, “Triazolo pyridines as modulators of gamma-secretase” (Boehringer Ingelheim International GmbH, priority 2017, dated 2022).

Where two headings read alike, the source gives them in different places.

One assay addresses RET (Homo sapiens, UniProt P07949). Kind of assay: Z'-LYTE SelectScreen biochemical kinase assay RET. The text has this: (§1) Thermo Fisher Scientific SelectScreen™ Biochemical Kinase Profiling Service Z′-LYTE™ Screening Protocol and Assay Conditions Assay Theory
(§2) The […] biochemical assay employs a fluorescence-based, coupled-enzyme format and is based on the differential sensitivity of phosphorylated and non-phosphorylated peptides to proteolytic cleavage. The peptide substrate is labeled with two fluorophores—one at each end—that make up a FRET pair. In the primary reaction, the kinase transfers the gamma-phosphate of ATP to a single tyrosine, serine or threonine residue in a synthetic FRET-peptide. In the secondary reaction, a site-specific protease recognizes and cleaves non-phosphorylated FRET-peptides. Phosphorylation of FRET-peptides suppresses cleavage by the Development Reagent. Cleavage disrupts FRET between the donor (i.e., coumarin) and acceptor (i.e., fluorescein) fluorophores on the FRET-peptide, whereas uncleaved, phosphorylated FRET-peptides maintain FRET. A ratiometric method, which calculates the ratio (Emission Ratio=Coumarin emission (445 nm)/Fluorescein emission (520 nm)) of donor emission to acceptor emission after excitation of the donor fluorophore at 400 nm, is used to quantitate reaction progress, as shown in the equation below. A significant benefit of this ratiometric method for quantitating reaction progress is the elimination of well-to-well variations in FRET-peptide concentration and signal intensities. As a result, the assay yields very high Z′-factor values (>0.7) at a low percent phosphorylation. Both cleaved and uncleaved FRET-peptides contribute to the fluorescence signals and therefore to the Emission Ratio. The extent of phosphorylation of the FRET-peptide can be calculated from the Emission Ratio. The Emission Ratio will remain low if the FRET-peptide is phosphorylated (i.e., no kinase inhibition) and will be high if the FRET-peptide is non-phosphorylated (i.e., kinase inhibition).
(§3) The Test Compounds are screened in 1% DMSO (final) in the well. For 10 point titrations, 3-fold serial dilutions are conducted from the starting concentration of the customer's choosing.
(§4) All Peptide/Kinase Mixtures are diluted to a 2× working concentration in the appropriate Kinase Buffer (see section Kinase Specific Assay Conditions for a complete description).
(§5) All ATP Solutions are diluted to a 4× working concentration in Kinase Buffer (50 mM HEPES pH 7.5, 0.01% BRIJ-35, 10 mM MgCl2, 1 mM EGTA). ATP Km apparent is previously determined using a Z″-LYTE assay.
(§6) The Development Reagent is diluted in Development Buffer (see section Kinase-Specific Assay Conditions—Direct and Cascade for a complete description).
(§7) Bar-coded Corning, low volume NBS, black 384-well plate (Corning Cat. #4514) • 1. 100 nL—100× Test Compound in 100% DMSO • 2. 2.4 μL—Kinase buffer • 3. 5 μL—2× Peptide/Kinase Mixture • 4. 2.5 μL—4×ATP Solution • 5. 30—second plate shake • 6. 60—minute Kinase Reaction incubation at room temperature • 7. 5 μL—Development Reagent Solution • 8. 30—second plate shake • 9. 60—minute Development Reaction incubation at room temperature • 10. Read on fluorescence plate reader and analyze the data Z′-LYTE Assay Controls
(§8) SelectScreen Kinase Profiling Service uses XLfit from IDBS. The dose response curve is curve fit to model number 205 (sigmoidal dose-response model).
The 2×RET/Tyr 02 mixture is prepared in 50 mM HEPES pH 7.5, 0.01% BRIJ-35, 10 mM MgCl2, 1 mM EGTA. The final 10 μL Kinase Reaction consists of 0.49-3.64 ng RET and 2 μM Tyr 02 in 50 mM HEPES pH 7.5, 0.01% BRIJ-35, 10 mM MgCl2, 1 mM EGTA. After the 1 hour Kinase Reaction incubation, 5 μL of a 1:128 dilution of Development Reagent A is added.

A further assay deals with MAP4K4 (HGK) (Homo sapiens, UniProt O95819). Briefly: Z'-LYTE SelectScreen biochemical kinase assay MAP4K4 (HGK).
MAP4K4 (HGK), sequence (O95819 whole entry): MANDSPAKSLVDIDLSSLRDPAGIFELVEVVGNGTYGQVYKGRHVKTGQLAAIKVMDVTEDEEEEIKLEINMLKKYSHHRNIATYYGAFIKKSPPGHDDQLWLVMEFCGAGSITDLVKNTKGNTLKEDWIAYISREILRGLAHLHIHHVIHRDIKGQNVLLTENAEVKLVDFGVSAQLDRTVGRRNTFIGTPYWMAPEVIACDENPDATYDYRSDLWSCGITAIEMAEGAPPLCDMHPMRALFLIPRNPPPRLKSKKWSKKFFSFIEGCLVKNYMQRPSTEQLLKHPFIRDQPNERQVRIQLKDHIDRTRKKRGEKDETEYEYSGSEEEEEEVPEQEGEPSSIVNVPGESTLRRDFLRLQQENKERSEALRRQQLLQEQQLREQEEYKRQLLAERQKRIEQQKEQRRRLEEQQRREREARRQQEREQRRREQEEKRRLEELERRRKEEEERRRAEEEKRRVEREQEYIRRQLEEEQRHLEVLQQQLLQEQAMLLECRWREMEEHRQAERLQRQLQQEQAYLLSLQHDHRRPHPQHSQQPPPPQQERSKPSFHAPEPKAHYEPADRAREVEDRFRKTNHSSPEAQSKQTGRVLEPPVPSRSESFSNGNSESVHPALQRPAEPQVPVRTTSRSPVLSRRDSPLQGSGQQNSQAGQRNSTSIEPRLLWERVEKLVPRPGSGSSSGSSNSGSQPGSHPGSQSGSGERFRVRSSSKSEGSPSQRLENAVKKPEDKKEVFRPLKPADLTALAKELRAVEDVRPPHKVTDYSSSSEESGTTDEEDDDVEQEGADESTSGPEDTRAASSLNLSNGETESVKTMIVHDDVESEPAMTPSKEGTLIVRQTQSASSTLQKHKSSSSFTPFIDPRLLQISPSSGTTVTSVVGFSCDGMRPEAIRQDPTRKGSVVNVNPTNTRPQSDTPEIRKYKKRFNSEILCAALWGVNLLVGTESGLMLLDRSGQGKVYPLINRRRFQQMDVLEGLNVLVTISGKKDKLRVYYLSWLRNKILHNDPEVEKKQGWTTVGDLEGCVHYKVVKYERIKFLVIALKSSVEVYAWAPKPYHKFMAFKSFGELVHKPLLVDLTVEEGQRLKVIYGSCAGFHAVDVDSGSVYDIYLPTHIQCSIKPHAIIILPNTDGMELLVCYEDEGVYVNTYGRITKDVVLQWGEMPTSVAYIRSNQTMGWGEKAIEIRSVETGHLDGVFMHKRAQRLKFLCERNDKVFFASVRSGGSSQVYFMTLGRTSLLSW
Source text: as §1, §2, §3, §4, §5, §6, §7, §8
The 2×MAP4K4 (HGK)/Ser/Thr 07 mixture is prepared in 50 mM HEPES pH 7.5, 0.01% BRIJ-35, 10 mM MgCl2, 1 mM EGTA. The final 10 μL Kinase Reaction consists of 0.36-1.82 ng MAP4K4 (HGK) and 2 μM Ser/Thr 07 in 50 mM HEPES pH 7.5, 0.01% BRIJ-35, 10 mM MgCl2, 1 mM EGTA. After the 1 hour Kinase Reaction incubation, 5 μL of a 1:45000 dilution of Development Reagent A is added.

For a further assay, the target named is FLT4 (VEGFR3) (Homo sapiens, UniProt P35916). Briefly: Z'-LYTE SelectScreen biochemical kinase assay FLT4 (VEGFR3).
FLT4 (VEGFR3), sequence (P35916 25-1363): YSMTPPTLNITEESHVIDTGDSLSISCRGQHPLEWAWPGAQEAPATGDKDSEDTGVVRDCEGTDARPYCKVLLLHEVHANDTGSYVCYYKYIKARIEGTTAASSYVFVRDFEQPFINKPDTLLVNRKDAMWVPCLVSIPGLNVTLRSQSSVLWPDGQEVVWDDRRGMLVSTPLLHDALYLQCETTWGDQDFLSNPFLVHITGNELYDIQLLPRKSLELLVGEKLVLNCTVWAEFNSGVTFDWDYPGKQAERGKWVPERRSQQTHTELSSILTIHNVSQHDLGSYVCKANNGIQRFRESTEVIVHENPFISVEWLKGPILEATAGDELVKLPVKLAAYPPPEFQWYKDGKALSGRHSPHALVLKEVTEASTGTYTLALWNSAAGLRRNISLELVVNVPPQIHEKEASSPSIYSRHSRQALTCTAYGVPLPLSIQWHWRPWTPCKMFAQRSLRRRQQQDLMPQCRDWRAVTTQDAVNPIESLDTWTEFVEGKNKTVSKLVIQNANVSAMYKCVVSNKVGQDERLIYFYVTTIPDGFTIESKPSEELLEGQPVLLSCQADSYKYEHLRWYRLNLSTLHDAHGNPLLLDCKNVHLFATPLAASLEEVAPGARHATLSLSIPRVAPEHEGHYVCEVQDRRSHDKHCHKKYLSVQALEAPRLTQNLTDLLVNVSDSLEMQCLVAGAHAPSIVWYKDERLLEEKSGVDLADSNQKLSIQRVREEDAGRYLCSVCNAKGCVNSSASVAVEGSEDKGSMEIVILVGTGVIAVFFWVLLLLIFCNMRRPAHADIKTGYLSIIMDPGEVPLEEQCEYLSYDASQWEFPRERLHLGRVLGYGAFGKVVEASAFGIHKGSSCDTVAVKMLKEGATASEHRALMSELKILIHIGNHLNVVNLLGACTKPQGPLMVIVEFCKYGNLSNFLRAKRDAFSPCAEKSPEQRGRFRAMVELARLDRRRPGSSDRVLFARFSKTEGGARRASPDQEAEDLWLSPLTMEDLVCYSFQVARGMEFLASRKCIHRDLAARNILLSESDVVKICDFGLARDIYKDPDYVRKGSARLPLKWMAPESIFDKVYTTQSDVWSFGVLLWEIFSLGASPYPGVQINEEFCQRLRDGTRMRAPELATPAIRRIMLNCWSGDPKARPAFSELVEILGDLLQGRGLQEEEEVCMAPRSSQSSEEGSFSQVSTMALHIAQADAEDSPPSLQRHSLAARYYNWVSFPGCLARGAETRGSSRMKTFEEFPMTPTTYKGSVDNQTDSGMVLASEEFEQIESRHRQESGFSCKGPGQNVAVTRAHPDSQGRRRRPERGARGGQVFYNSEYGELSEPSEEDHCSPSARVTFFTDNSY
Source text: as §1, §2, §3, §4, §5, §6, §7, §8
The 2×FLT4 (VEGFR3)/Tyr 04 mixture is prepared in 50 mM HEPES pH 7.5, 0.01% BRIJ-35, 10 mM MgCl2, 4 mM MnCl2, 1 mM EGTA, 2 mM DTT. The final 10 μL Kinase Reaction consists of 2-10.5 ng FLT4 (VEGFR3) and 2 μM Tyr 04 in 50 mM HEPES pH 7.5, 0.01% BRIJ-35, 10 mM MgCl2, 2 mM MnCl2, 1 mM EGTA, 1 mM DTT. After the 1 hour Kinase Reaction incubation, 5 μL of a 1:64 dilution of Development Reagent B is added.

For another assay, the system named is Aβ42 production. Kind of assay: Inhibition of Aβ42 production in H4 neuroglioma cells stably expressing human APP695 (MSD electrochemiluminescence). The class given is cell-based. Conditions: for modulation of γ-secretase (in words): tables 4a/4b. The method, then:
Cells were plated out to near confluency. The compounds to be tested were received as 10 mM stocks in 100% DMSO. A dilution series was initially generated in 100% DMSO and then diluted 200-fold in cell culture media such that the tested concentration range was 30 μM to 0.1 nM and the final DMSO concentration was 0.5%. The diluted compounds were incubated with the cells for 22 hours in an incubator at 37° C. and 5% CO2. Aβ42 levels were measured post-incubation from the supernatant of the cells using an Aβ42 specific electrochemiluminescence assay provided by Meso Scale Discovery (Catalog #L21CA-1). The measurement of Aβ42 levels were performed according to the manufacturer's protocol.

[1] abbreviates: 10 μmolar compound concentration, ATP at Km app, read-out: RET inhibition.
The mark [2] stands for this setting: read-out: % Inhibition mean RET.
[3] abbreviates: 10 μmolar compound concentration, ATP at Km app, read-out: MAP4K4 (HGK) inhibition.
Where [4] appears, read: read-out: % Inhibition mean MAP4K4 (HGK).
The mark [5] stands for this setting: 10 μmolar compound concentration, ATP at Km app, read-out: FLT4 (VEGFR3) inhibition.
Setting [6] is: read-out: % Inhibition mean FLT4 (VEGFR3).
Setting [7] is: H4 neuroglioma cells expressing human APP695, 22 hours incubation, Table 4a.
Where [8] appears, read: Homo sapiens, H4 neuroglioma cells, same assay as table 4a, prior art compounds, Table 4b.

RET, sequence (P07949 29-1114): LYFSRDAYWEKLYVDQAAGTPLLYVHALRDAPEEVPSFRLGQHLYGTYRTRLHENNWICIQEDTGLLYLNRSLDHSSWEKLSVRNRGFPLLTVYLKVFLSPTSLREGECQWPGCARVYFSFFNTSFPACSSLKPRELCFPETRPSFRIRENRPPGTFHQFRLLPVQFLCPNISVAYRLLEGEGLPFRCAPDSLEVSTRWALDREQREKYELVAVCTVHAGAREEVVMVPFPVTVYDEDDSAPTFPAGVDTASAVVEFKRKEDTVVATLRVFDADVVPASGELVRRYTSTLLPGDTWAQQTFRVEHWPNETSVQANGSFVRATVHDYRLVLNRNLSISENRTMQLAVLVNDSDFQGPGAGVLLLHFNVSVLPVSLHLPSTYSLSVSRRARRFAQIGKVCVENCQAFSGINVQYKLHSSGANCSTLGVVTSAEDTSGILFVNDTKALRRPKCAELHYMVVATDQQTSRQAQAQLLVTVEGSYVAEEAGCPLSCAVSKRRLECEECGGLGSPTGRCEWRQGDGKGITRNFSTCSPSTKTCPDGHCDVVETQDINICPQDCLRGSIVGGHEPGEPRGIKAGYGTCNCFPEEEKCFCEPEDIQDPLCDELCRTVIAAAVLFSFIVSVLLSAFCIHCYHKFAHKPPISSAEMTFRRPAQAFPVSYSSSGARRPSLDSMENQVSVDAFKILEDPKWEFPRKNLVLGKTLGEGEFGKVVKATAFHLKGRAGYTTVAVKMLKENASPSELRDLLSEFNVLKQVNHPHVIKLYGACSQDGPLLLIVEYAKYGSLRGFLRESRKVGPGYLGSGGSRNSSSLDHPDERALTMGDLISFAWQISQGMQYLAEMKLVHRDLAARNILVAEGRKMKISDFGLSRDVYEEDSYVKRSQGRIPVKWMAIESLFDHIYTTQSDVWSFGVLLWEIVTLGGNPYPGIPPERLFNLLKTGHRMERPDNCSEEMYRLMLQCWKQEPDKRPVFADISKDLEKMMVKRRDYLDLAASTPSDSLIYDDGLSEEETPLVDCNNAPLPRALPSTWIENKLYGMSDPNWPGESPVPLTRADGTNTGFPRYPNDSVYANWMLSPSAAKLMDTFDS

With `CCCCCn1ncc2c1CCC(Nc1nc3c(-c4ccc(F)cc4C)cccn3n1)C2` (centres unmarked) [Example 47, [8-(4-fluoro-2-methyl-phenyl)-[1,2,4]triazolo[1,5-a]pyridine-2-yl]-(1-pentyl-4,5,6,7-tetrahydro-1H-indazol-5-yl)-amine], the inhibition (as a rule, the change of the read-out against control, counted positive when it falls) at 10 µM on RET (setting [1]) is < 40%; on RET (setting [2]), 23%; at MAP4K4 (HGK) (setting [3]) it was < 40%; at MAP4K4 (HGK) (setting [4]), 32%; at FLT4 (VEGFR3) (setting [5]), < 40%; on FLT4 (VEGFR3) (setting [6]), 13%. Further, the IC50 (as a rule, the concentration needed to halve the response being measured) in the assay with Aβ42 production (setting [7]) is > 30000 nM.
As to `CCn1ncc2c1CCC(Nc1nc3c(-c4ccccc4)cccn3n1)C2` (centres unmarked) [Example 57, (1-Ethyl-4,5,6,7-tetrahydro-1H-indazol-5-yl)-(8-phenyl-[1,2,4]triazolo[1,5-a]pyridine-2-yl)-amine], the inhibition at 10 µM at RET (setting [1]) is < 40%; at MAP4K4 (HGK) (setting [3]), 40 to 80%; on MAP4K4 (HGK) (setting [4]), 58%; on FLT4 (VEGFR3) (setting [5]), 40 to 80%; at FLT4 (VEGFR3) (setting [6]) it was 43%. In the assay with Aβ42 production (setting [7]), the midpoint of inhibition, the IC50, lay at 70 nM.
`CC1(C)C(=O)Nc2ccc(Nc3nc4c(-c5cccc(F)c5)cccn4n3)cc21` [Cpd. 263 in WO09155551, reference compound]: the inhibition at 10 µM is > 80% on RET (setting [1]); 96% on RET (read-out: % Inhibition mean); > 80% on MAP4K4 (HGK) (setting [3]); 98% on MAP4K4 (HGK) (read-out: % Inhibition mean); > 80% on FLT4 (VEGFR3) (setting [5]); 103% at FLT4 (VEGFR3) (read-out: % Inhibition mean). In addition, inhibition in the assay on Aβ42 production (setting [8]) was half-maximal at 6000 nM (IC50). Moreover, in the assay with Aβ42 production, the “modulation of γ-secretase (in words)” value is given as “rather poor modulation”.
As for `Fc1cccc(-c2cccn3nc(Nc4ccc5[nH]cnc5c4)nc23)c1` [Cpd. 293 in WO09155551, reference compound], the inhibition at 10 µM on RET (setting [1]) was > 80%; on RET (read-out: % Inhibition mean), 94%; at MAP4K4 (HGK) (setting [3]), > 80%; on MAP4K4 (HGK) (read-out: % Inhibition mean) it was 95%; at FLT4 (VEGFR3) (setting [5]), > 80%; on FLT4 (VEGFR3) (read-out: % Inhibition mean), 94%. Also, in the assay on Aβ42 production (setting [8]), half-maximal inhibition (IC50) was put at 7000 nM. The “modulation of γ-secretase (in words)” value with Aβ42 production is reported as “do not show any modulation”.
As for `CCn1ncc2c1CCC(Nc1nc3c(-c4cnccc4OC)cccn3n1)C2` (centres unmarked) [Example 68, (1-Ethyl-4,5,6,7-tetrahydro-1H-indazol-5-yl)-[8-(4-methoxy-pyridin-3-yl)-[1,2,4]triazolo[1,5-a]pyridine-2-yl]-amine], the inhibition at 10 µM at RET (setting [1]) was < 40%; on RET (setting [2]) it was 28%; on MAP4K4 (HGK) (setting [3]), 40 to 80%; at MAP4K4 (HGK) (setting [4]), 42%; at FLT4 (VEGFR3) (setting [5]) it was 40 to 80%; on FLT4 (VEGFR3) (setting [6]), 52%. For the same compound, in the assay on Aβ42 production (setting [7]), the IC50 was 120 nM.
In the case of `CCCCn1ncc2c1CCC(Nc1nc3c(-c4ccc(F)cc4C)cccn3n1)C2` (centres unmarked) [Example 46, [8-(4-fluoro-2-methyl-phenyl)-[1,2,4]triazolo[1,5-a]pyridine-2-yl]-(1-butyl-4,5,6,7-tetrahydro-1H-indazol-5-yl)-amine], the inhibition at 10 µM is < 40% at RET (setting [1]); 26% on RET (setting [2]); 40 to 80% on MAP4K4 (HGK) (setting [3]); 48% at MAP4K4 (HGK) (setting [4]); < 40% on FLT4 (VEGFR3) (setting [5]); 29% at FLT4 (VEGFR3) (setting [6]). In the assay on Aβ42 production (setting [7]), this compound returned an IC50 of 2770 nM.
As to `CCn1ncc2c1CCC(Nc1nc3c(-c4cncc(Cl)c4)cccn3n1)C2` (centres unmarked) [Example 73, [8-(5-Chloro-pyridin-3-yl)-[1,2,4]triazolo[1,5-a]pyridine-2-yl]-(1-ethyl-4,5,6,7-tetrahydro-1H-indazol-5-yl)-amine], the inhibition at 10 µM on RET (setting [1]) was 40 to 80%; at RET (setting [2]), 62%; at MAP4K4 (HGK) (setting [3]), 40 to 80%; at MAP4K4 (HGK) (setting [4]), 74%; on FLT4 (VEGFR3) (setting [5]), 40 to 80%; at FLT4 (VEGFR3) (setting [6]), 50%. Moreover, it took 40 nM to reach half-maximal inhibition in the assay with Aβ42 production (setting [7]) (IC50).
In the case of `CCn1ncc2c1CCC(Nc1nc3c(-c4ccc(C)nc4)cccn3n1)C2` (centres unmarked) [Example 67, (1-Ethyl-4,5,6,7-tetrahydro-1H-indazol-5-yl)-[8-(6-methyl-pyridin-3-yl)-[1,2,4]triazolo[1,5-a]pyridine-2-yl]-amine], the inhibition at 10 µM at RET (setting [1]) is < 40%; at RET (setting [2]), 24%; on MAP4K4 (HGK) (setting [3]), 40 to 80%; on MAP4K4 (HGK) (setting [4]), 49%; at FLT4 (VEGFR3) (setting [5]), < 40%; at FLT4 (VEGFR3) (setting [6]) it was 33%. Further, inhibition in the assay with Aβ42 production (setting [7]) was half-maximal at 670 nM (IC50).
Consider `CCn1ncc2c1CC[C@H](Nc1nc3c(-c4ccc(F)c(Cl)c4)cccn3n1)C2` [Example S-61, (S)-[8-(3-Chloro-4-fluoro-phenyl)-[1,2,4]triazolo[1,5-a]pyridine-2-yl]-(1-ethyl-4,5,6,7-tetrahydro-1H-indazol-5-yl)-amine], for which the inhibition at 10 µM at RET (setting [1]) was < 40%; on RET (setting [2]), 23%; at MAP4K4 (HGK) (setting [3]), < 40%; at MAP4K4 (HGK) (setting [4]), 11%; at FLT4 (VEGFR3) (setting [5]) it was < 40%; at FLT4 (VEGFR3) (setting [6]), 24%. This compound also returned an IC50 in the assay on Aβ42 production (setting [7]) of 194 nM.
On to `CCn1ncc2c1CC[C@@H](Nc1nc3c(-c4ccc(F)cc4C)cccn3n1)C2` [Example R-42, (R)-(1-Ethyl-4,5,6,7-tetrahydro-1H-indazol-5-yl)-[8-(4-fluoro-2-methyl-phenyl)-[1,2,4]triazolo[1,5-a]pyridine-2-yl]-amine], for which the inhibition at 10 µM on RET (setting [1]) was < 40%; on RET (setting [2]) it was 23%; at MAP4K4 (HGK) (setting [3]), 40 to 80%; at MAP4K4 (HGK) (setting [4]), 56%; on FLT4 (VEGFR3) (setting [5]) it was < 40%; on FLT4 (VEGFR3) (setting [6]), 36%. Besides, the IC50 in the assay with Aβ42 production (setting [7]) is 40 nM.
